PMC7259601 (PLoS ONE, 2020)
Values joined by “and” are separate entries in the source; they are usually repeats but may differ in a detail not shown here. Identical values can stand only once.

Tests used:
SAMP8 mice = experiment: Elevated Plus Maze (EPM), SAMP8; format: in vivo, mouse; conditions: 0.32 or 0.96 mg/kg/day
Protocol: Both male and female mice from the senescence accelerated strain SAMP8 and its control SAMR1 of different ages (see Table S3 for details) were used in these studies. Mice were breed in the animal facilities of the Pharmacy Faculty (University of Barcelona), maintained in a at 22 ± 2 °C controlled temperature in a 12 hr light / dark cycle (lights on at 8:00 am; 300 lux/0 lux) with ad libitum access to food (2018 TEKLAD, Harlan) and water. Male mice were housed individually (males) or in groups of 4-5 animals (females) in plastic colony boxes with a sawdust bedding material. […] SAMR1 mice treated with vehicle were included as a control. […] Drug concentration was calculated weekly in function of body weight and corrected in function of drinking water consumption. Cognitive function was evaluated by NORT, social behavior was evaluated by RI and anxiety and motor function were evaluated by EPM and OF. […]
The EPM consisted of four arms at right angles to each other connected to a central square and maintained elevated 50 cm above the floor. […] The animal was placed facing a closed arm, and its movements were video-recorded for 5 min and analyzed by video-tracking using SMART® (v3.0, PanLab, SLU, Spain).
Elevated Plus Maze (EPM): Movements were video-recorded for 5 min and analyzed by video-tracking using SMART® (v3.0, PanLab, SLU, Spain).

[1] = test system: M (non-selective) (antagonist radioligand); experiment: CEREP Diversity Panel; format: binding; design: % inhibition: dose or concentration left out as unconfirmed
Protocol: (§1) […]. MAO-A inhibition at 10 μM was 37%, in line with internal data.

[2] = test system: I2 (antagonist radioligand); experiment: CEREP Diversity Panel; format: binding; design: % inhibition: dose or concentration left out as unconfirmed
Protocol: as §1

H3K9 ac = experiment: Epigenetic selectivity profile; format: biochemical; design: dose or concentration left out as unconfirmed
Protocol: as §1

KDM1A [3] = biological target: T1, KDM1A (Homo sapiens, UniProt O60341); experiment: MALDI-TOF mass spectrometry of FAD-ORY-2001 adducts; format: binding
Protocol: The sample was initially purified by reversed phase chromatography in a ZipTipC18 pipette tip (Millipore, USA) wet using column and equilibrated with 0.1% TFA. The sample was bound to the column by repeated aspiring and dispensing to achieve maximum binding. The ZipTip pipette tip was washed three times with 0.1% TFA and eluted in 4 µl. of 50 % ACN/ 0.1% TFA. 1 µl of eluted sample was loaded onto an AnchorChip MALDI target (Bruker, Germany); 2 µl. of matrix solution (0.3 mg/ml HCCA -alpha-cyano-4-hydroxycinamic acid in EtOH/acetone 2:1) was added and the mixture was allowed to dry at room temperature. The sample preparations were analyzed in an AutoFlex Speed MALDI TOF/TOF mass spectrometer (Bruker, Germany), equipped with a Nd:YAG laser. MS spectra were acquired in Reflector mode, with either positive or negative polarity. MSMS post source-decay fragmentation spectra of selected precursor ions were obtained using the LIFT module (Bruker, Germany).

KDM1A [4] = biological target: T1, KDM1A; experiment: Chemoprobe based KDM1A target engagement in THP-1 cells; format: cell-based; design: Native protein extracts of cells or tissues were obtained in presence of 25 nM OG-881 chemoprobe; endogenous in cells; host or cells: THP-1; conditions: THP-1 cells treated 24 hr
Protocol: Native protein extracts of cells or tissues were obtained in presence of 25 nM OG-881 chemoprobe according the protocol described in Mascaró et al..
Luminescent ELISA: for quantification of total amount of KDM1A protein (TOTAL KDM1A), Luminunc Plates Maxisorp (NUNC; #436110) were coated with a monoclonal anti-KDM1A antibody (Abcam; #ab53269) at 2 µg/mL in PBS. For quantification of the fraction not bound to inhibitor (FREE KDM1A), plates were coated with streptavidin (Promega Biotech Ibérica; #Z7041) at 10 µg/mL in PBS. Coating was performed at 4°C O/N. Wells were washed 3 times in PBS, 0.1% Tween-20 and blocked with PBS-BSA 1% (Sigma; #A3059) for 2 hr. A KDM1A calibration curve of full length rKDM1A (Active Motif; #31334) diluted in PBS was included in each plate. Plates were then incubated 1 hr at RT and washed 5 times. […] Plates were centrifuged during 30 sec to 1,500 x g, shaken for 1 min at 100rpm and incubated inside the micropate reader (Infinite 200, Tecan) for 3 min at 25 °C. The relative luminescence units (RLU) readouts were acquired using a 1000 msec integration time and 150 msec settle time.
All assays were run as triplicate technical replicates (n = 3). After raw data processing (robust elimination of outliers according to Grubbs criteria and subtraction of blank signal on technical replicates), the target engagement was calculated as […]

Q: Which results are given for `Nc1nnc(CN[C@@H]2C[C@H]2c2ccc(OCc3ccccc3)cc2)o1` [ORY-2001, vafidemstat]?
A: time in the open arms of the EPM (SAMP8 mice): not significantly modified; % inhibition [1]: 1%; muscarinic receptor antagonist (MRA) activity [1]: not an MRA; % inhibition [2]: 71%; I2 imidazoline receptor inhibition of ligand binding ([2]; 10 μM): 71%; % inhibition (H3K9 ac): -5%; adduct formation with KDM1A (KDM1A [3]): adduct formation; EC50 (KDM1A [4]): ~1 nM and 1 nM
